Experimental data: patent US12258561B2, “Compositions and methods to promote bone formation and their uses including for the treatment of cancer” (THE RESEARCH FOUNDATION FOR THE STATE UNIVERSITY OF NEW YORK, priority 2014, dated 2025)
Entries after “also recorded” stand apart in the source; their conditions may differ.

Tests used:
[1] = system: monocytes cultured to become osteoclasts; assay: TRAP staining and assay of osteoclast number; assay type: cell-based, human, mouse
Description: TRAP Staining and the Assay of Osteoclast Number: Osteoclasts were derived from either an enriched population of human monocytes or from mouse non-enriched whole bone marrow aspirates. Three human patient bone marrow samples were assayed in parallel with samples collected from 3-week (n=10) mouse bone marrow. The monocyte fraction was stimulated to become osteoclasts by culturing 1×10^6 cells with 25-ng/mL of MCSF and 25-ng/mL of recombinant human or mouse RANK-ligand (R&D Systems) in the presence of the met5-ligand ([5-μM] 2.87-, or [50-μM] 28.7-μg; Sigma), naloxone (400-ng or 400-μg; Sigma) or naltrexone (378-ng or 378-μg; Sigma). Osteoclasts were stained with tartrate resistant acid phosphatase (TRAP; Sigma Leukocyte Acid Phosphatase Kit 387-A) and counted when cells stained TRAP-positive and had at least three nuclei. Estimates of osteoclast number were obtained by Cavalieri sampling and a modification of the fractionator technique.

[2] = system: RDES Ewing's sarcoma of bone tumor cells; assay: Assay of cell number (MTT), RDES cells; assay type: cell-based
Text: (§1) Methods: Human bone marrow was collected from consenting adult patients undergoing either an elective primary proximal femoral total hip arthroplasty or elective primary distal femoral total knee arthroplasty (n=6, mean age 65) as a part of an IRB approved study. Human MSC were derived from the adherent fraction of whole bone marrow aspirates. Ewing's sarcoma tumor cells (RDES, Hs822 and Hs863) and SaOS2 osteosarcoma tumor cells were obtained from ATCC. Cells were maintained in Dulbecco's Modification of Eagle's Media (DMEM) containing 10% fetal calf serum (v/v) and 1% penicillin-streptomycin-glutamine (PSG; Cellgro, Mediatech).
(§2) Assay of Cell Number: Following the addition of 1-mM naloxone or 1-mM naltrexone, viable cell number was determined with the MTT assay. After 72-hours and 120-hours, MTT (5 mg/ml (w/v), Sigma) was added to each well, incubated for 2-hours, after which the cells lysed with 500-μl of DMSO (Sigma). MTT was measured at 570-nm and the effects of therapy on cell proliferation were determined by normalizing treated wells relative to mean values from non-treated wells: Fold change in cell number=100*[treated cells optical density/mean control optical density].

[3] = system: SaO52 osteosarcoma tumor cells; assay: Assay of cell number (MTT), osteosarcoma cells; assay type: cell-based
Text: as §1, §2

[4] = system: MSC cultures induced to become osteoblasts; assay: Osteogenesis: mineral formation in MSC with osteoinduction media (alizarin red-S staining); assay type: cell-based, human
Text: Methods: Human Bone Marrow was Collected from Consenting Adult Patients undergoing either an elective primary proximal femoral total hip arthroplasty or elective primary distal femoral total knee arthroplasty (n=6, mean age 65) as a part of an IRB approved study. Human MSC were derived from the adherent fraction of cells derived from each whole bone marrow aspirate collected, while the monocyte population was collected from the non-adherent fraction of the bone marrow. The monocyte fraction was enriched through sub-culture with 100-ng/mL recombinant human macrophage colony-stimulating factor (MCSF; Wyeth). In parallel experiments described below, the femurs from 3-week (n=10) and 16-week (n=20) old male mice were collected and then the bone marrow was flushed from the femur according to the following: A 21-gauge needle was inserted into the femoral intramedular canal after the removal of the proximal and distal ends of the femur. Media was then carefully passed through the proximal end of the femur, which forced the bone marrow to pass out of the bone. Finally, the bone marrow pellet was mechanically disassociated using an 18-gauge needle and then passed through a 70-μm mesh filter. These whole bone marrow aspirates were used to generate osteoclasts. Cells were maintained in Dulbecco's Modification of Eagle's Media (DMEM) containing 10% fetal calf serum (v/v) and 1% penicillin-streptomycin-glutamine (PSG; Cellgro, Mediatech). […] The responsible IACUC committee approved all of the animal studies described in this work.
Osteogenesis: Osteogenic potential in MSC was assayed by chemically inducing mineral formation. MSC from at least three human patients were seeded at 5×10^3 cells per well and allowed to become confluent and woven prior to the addition of osteo-induction media. Induction media consisted of DMEM containing 20% FCS (v/v) and 1% PSG supplemented with 25-μg/mL of acscorbic-2-phosphate (Sigma), 100-nM dexamethasone (Sigma) and the following dosing regimen of β-glycerophosphate (BGP; Sigma): 1× media change with 5-mM BGP, 1× media change with 10-mM BGP and 1× media change with 20-mM of BGP. Met5-ligand (0-, [5-μM] 2.87-, or [50-μM] 28.7-μg; Sigma), naloxone (0-, 400-fg, 400-pg, 400-ng, 400-μg; Sigma) or naltrexone (0-, 378-fg, 378-pg, 378-ng, 378-μg; Sigma) was added as follows: 1) 1×, with the first addition of osteo-induction media, 2) 2×, with the first and second addition of osteo-induction media and 3) with each post-induction media change. […] After the appearance of mineral nodules, cells were fixed with 70% ice-cold EtOH (Sigma) and then stained using 40-mM alizarin red-S (pH 4.2, Sigma). Osteogenesis experiments were repeated at least twice for each patient.

[5] = system: Hs822t Ewing's sarcoma of bone tumor cells; assay: Assay of cell number (MTT), Hs822t cells; assay type: cell-based
Text: as §1, §2

[6] = system: unicortical defect in mouse tibia; assay: Opioid antagonist containing collagen implant in unicortical defect model, microCT; assay type: in vivo, C57BL/6 mice; conditions: 7 days after surgery
Text: Implantation of Opioid Antagonist Containing Collagen Implant into a Unicortical Defect Model: Male 5-week old C57BL/6 mice (n=5 per treatment group for a total of 25 total animals) were used in this study. […] Unicortical defects were surgically administered through a small incision (approximately 3-mm) made just below the knee joint, located on the medial side of the tibia just below the tibial tuberosity on the tibial crest. In 5-weeks old male mice, the physeal plate is clearly visible and the drill bit was placed approximately 1-mm below this point. The drill-bit produces a unicortical defect with dimensions 300-μm diameter×1-mm depth. […] In parallel, a separate group of animals served as non-surgical controls. Mice were euthanized 7-days after surgery, hind limbs were collected and tibias were prepared for micro-CT (μCT) analysis.
(§3) MicroCT Analysis of Unicortical Defects: High-resolution images of the tibia were acquired with μCT imaging system (μT40; Scanco Medical). Tibias were scanned at 45-keV with an isotropic voxel size of 12-μm. An analysis region was selected from axial sections to include the entire unicortical defect bounded by the endosteal cortical wall. The volume corrected bone volume (bone volume/total volume; By/Tv), trabecular number (TbN) and trabecular thickness (TbTh) were calculated using the Scanco software.

[7] = system: unicortical defect in mouse tibia; assay: Unicortical defect model, direct injection, microCT; assay type: in vivo, C57BL/6 mice; conditions: naloxone 1-mM or met5 50-μM
Description: Unicortical Defect Model: Male 3-week old C57BL/6 mice (n=5 per treatment group) were injected with met5, naloxone or naltrexone following the creation of a unicortical defect. Briefly, a small incision (approximately 3-mm) was made just below the knee joint, located on the medial side of the tibia just below the tibial tuberosity on the tibial crest. In young animals the physeal plate is clearly visible and the drill bit was placed approximately 1-mm below this point. The drill-bit produces a unicortical defect with dimensions 300-μm diameter×1-mm depth. A Hamilton Neuros RN 10-μL syringe with a 33-gauge blunt tip needle was used to inject 2-μL of met5 (28.7-μg), naloxone (400-μg) or naltrexone (378-μg) resuspended in saline directly into the unicortical defect at a rate no faster than approximately 0.1-μL per second. The left-limb tibias served as contra-lateral surgical controls, in which animals received a unicortical defect and 2-μL of saline was injected. Mice were euthanized 5-days after surgery, hind limbs were collected and tibias were fixed for immunofluorescence, TRAP staining and OTC associated bone growth.
as §3

[8] = collagen implant, 25-ng BMP2, 1-mM naltrexone or 1-mM naloxone
[9] = 50-μM met5 with collagen implant

| Molecule | osteoclast number (TRAP staining) ([1]; 1-mM) | osteoclast number (TRAP staining) ([1]; 1-μM) | RDES tumor cell number relative to control cultures ([2]; 1-mM, seventy-two hours) | SaO52 osteosarcoma cell number relative to control cultures ([3]; 1-mM, seventy-two hours) | mineral accumulation (red staining) ([4]; between 1-μM and 1-mM with osteoinduction media) | Hs822t tumor cell number relative to control cultures ([5]; 1-mM, seventy-two hours) | Bv/Tv relative to non-surgical controls ([6]; collagen implant) | trabecular thickness (TbTh) relative to the control non-surgical group ([6]; collagen implant) | Bv/Tv compared with the BMP2 treated group ([6]; collagen implant, 1-mM) | increase in Bv/Tv relative to the PBS treated group [6, 8] | increase in Bv/Tv relative to the surgical control group [6, 8] | osteoclast number (TRAP staining) ([1]; met5, relative to control osteoclast cultures) | RDES tumor cell number ([2]; met5) | SaO52 osteosarcoma cell number ([3]; met5) | mineral accumulation ([4]; 5-μM met5 added to osteoinduction media) | mineral accumulation ([4]; 50-μM met5 added to osteoinduction media) | Hs822t tumor cell number ([5]; 50-μM of met5) | Bv/Tv greater than the non-surgical control group [6, 9] | fracture healing (Bv/Tv) compared with the surgical control group [6, 9] | bone healing [7] |
| --- | --- | --- | --- | --- | --- | --- | --- | --- | --- | --- | --- | --- | --- | --- | --- | --- | --- | --- | --- | --- |
| O=C1CC[C@@]2(O)[C@H]3Cc4ccc(O)c5c4[C@@]2(CCN3CC2CC2)[C@H]1O5 [naltrexone] | reduced osteoclast number substantially | did not significantly reduce osteoclast number | decreased significantly | decreased significantly | increased mineral, but to a lesser extent than naloxone | decreased relative to the control cultures | increased relative to non-surgical controls | increased within the defect significantly | no significant difference | 39.2% | 63.5% |  |  |  |  |  |  |  |  |  |
| Tyr-Gly-Gly-Phe-Met (YGGFM; printed: Tyr-Gly-Gly-Phe-Met) [met5, opioid growth factor (OGF or met-5 enkephalin), the native ligand for the OGFR] |  |  |  |  |  |  |  | increased within the defect significantly |  |  |  | unaffected | no effect | had not effect on cell number | no effect on mineral formation in culture; also recorded: no effect on mineral accumulation | no effect on mineral formation in culture; also recorded: decreased mineral accumulation slightly | significant increase | approximately 37% | not significantly different | no effect |
